# Laboratory results reported in US20260207623A1, “USE OF ESTETROL IN HEPATICALLY IMPAIRED PATIENTS” (ESTETRA SRL, priority 2022, published 2026).
# Experiment: Phase 1 pharmacokinetic study of a single oral dose of 20 mg E4 monohydrate in female subjects with normal hepatic function and mild, moderate or severe hepatic impairment (plasma, LC-MS/MS, non-compartmental analysis)
# Format: in vivo, human
# Details: for AUC0-24 h, GM / AUC0-24 h, Mean / AUC0-24 h, Median / AUCinf, GM / AUCinf, Mean / AUCinf, Median / AUClast, GM / AUClast, Mean / AUClast, Median / Cmax, GM / Cmax, Mean / Cmax, Median / T1/2, GM / T1/2, Mean / T1/2, Median / Tmax, Median / λz, GM / λz, Mean / λz, Median: single oral dose 20 mg E4 monohydrate, plasma
# Experimental: This was a Phase 1, multi-centre, open-label, PK, and safety study of a single oral dose of 20 mg E4 monohydrate in female subjects with normal hepatic function (Group 1), mild hepatic impairment (Group 2), moderate hepatic impairment (Group 3), and severe hepatic impairment (Group 4), as defined using the Child-Pugh classification at Screening.
# The study consisted of an eligibility Screening period (within 28 days prior to study drug administration), an Assessment Period with in-house period and outpatient visits (including a single oral dose of 20 mg E4 on Day 1), and a follow up visit. All subjects were confined to the study site from Day-1 (the day before dosing) until Day 4 and returned to the site every day from Day 5 to Day 9. Alternatively, the subjects could stay for a prolonged in-house period in agreement with the Investigator. The follow-up visit occurred on Day 14 (+2 days).
# All subjects arrived at the study site in the morning of Day-1 in a fasted state (no food for at least 8 h, water was allowed) to have the scheduled assessments performed in order to confirm eligibility as outlined in the inclusion and exclusion criteria (Section 2.3.1 and Section 2.3.2, respectively). In the morning of Day 1 following an overnight fast, the subjects received oral dosing of 20 mg E4 monohydrate and remained at the site. Study-related assessments were performed at time points indicated in the Schedule of Assessments in Table 2.
# Serial blood sampling for PK assessments started on Day 1 and proceeded until Day 9 according to the Pharmacokinetic Sampling Schedule presented in Table 3.
# Each enrolled subject was to receive a single oral dose of 20 mg of E4 (estetrol) as monohydrate as a film-coated tablet.
# Study drug was administered to subjects in the morning after an overnight fast of at least 8 h.
# Calculation of non-compartmental PK parameters were done using WinNonlin™ Professional, Version 6.3 or higher.
# The primary PK parameters to be analyzed for E4 in plasma: • Cmax=maximum observed plasma concentration • AUCinf=area under the concentration-time curve (AUC) from time zero extrapolated to infinity
# The analysis of E4 and the metabolites E4-3-glucuronide and E4-16-glucuronide in plasma samples were performed at the Bioanalytical Laboratory of the CRO using a validated liquid chromatography-mass spectrometry/mass spectrometry method.
# Individual and mean plasma concentrations at each sampling time point for E4 are presented by listings and descriptive summary statistics including means, geometric means (GMs), medians, ranges, standard deviations (SD) and coefficients of variation (CV). Individual, mean and/or median concentrations per hepatic function group were plotted versus time on semilogarithmic scales.
# PK parameters were calculated by non-compartmental analysis. PK parameters were analysed using descriptive statistics and are presented by hepatic function group.
# Analysis of variance (ANOVA) were used to compare primary PK parameters of E4 (Cmax and AUCinf) between subjects with hepatic impairment and subjects with normal hepatic function in an exploratory approach, using the log-transformed value of each PK parameter as dependent variable, and the hepatic impairment group (normal, mild, moderate, and severe) as a fixed classification factor. Geometric least squares means were used to calculate the ratios of primary PK parameters for each hepatic impairment group to those in the control group, along with 90% confidence intervals (CIs).
# Additionally, the impact of age and BMI on the effect of hepatic impairment were evaluated using an ANOVA model similar as the ANOVA model described above, but with the interaction between each factor and the hepatic impairment group included as an additional factor.
# The relationship between log-transformed PK parameters (Cmax and AUCinf) and continuous parameters (albumin, total bilirubin, and prothrombin time) used for the Child-Pugh score was explored by a linear regression approach. […]
smiles,measurement,setting,value
CC12CCC3c4ccc(O)cc4CCC3C1C(O)C(OC1OC(C(=O)O)C(O)C(O)C1O)C2O (stereo not shown) [E4-16-glucuronide],"AUC0-24 h, GM",Mild hepatic impairment,1017.08 ng·h/mL
same,"AUC0-24 h, Mean",Mild hepatic impairment,1038.91 ng·h/mL
same,"AUC0-24 h, Median",Mild hepatic impairment,1061.93 ng·h/mL
same,"AUCinf, GM",Mild hepatic impairment,1380.13 ng·h/mL
same,"AUCinf, Mean",Mild hepatic impairment,1389.24 ng·h/mL
same,"AUCinf, Median",Mild hepatic impairment,1358.39 ng·h/mL
same,"AUClast, GM",Mild hepatic impairment,1350.15 ng·h/mL
same,"AUClast, Mean",Mild hepatic impairment,1364.27 ng·h/mL
same,"AUClast, Median",Mild hepatic impairment,1329.47 ng·h/mL
same,"Cmax, GM",Mild hepatic impairment,711.100 ng/mL
same,"Cmax, Mean",Mild hepatic impairment,745.750 ng/mL
same,"Cmax, Median",Mild hepatic impairment,712.500 ng/mL
same,"T1/2, GM",Mild hepatic impairment,24.080 h
same,"T1/2, Mean",Mild hepatic impairment,24.634 h
same,"T1/2, Median",Mild hepatic impairment,25.699 h
same,"Tmax, Median",Mild hepatic impairment,0.490 h
same,"λz, GM",Mild hepatic impairment,0.0300 h⁻¹
same,"λz, Mean",Mild hepatic impairment,0.0295 h⁻¹
same,"λz, Median",Mild hepatic impairment,0.0270 h⁻¹
same,"AUC0-24 h, GM",Moderate hepatic impairment,1244.09 ng·h/mL
same,"AUC0-24 h, Mean",Moderate hepatic impairment,1293.40 ng·h/mL
same,"AUC0-24 h, Median",Moderate hepatic impairment,1323.09 ng·h/mL
same,"AUCinf, GM",Moderate hepatic impairment,1459.97 ng·h/mL
same,"AUCinf, Mean",Moderate hepatic impairment,1518.70 ng·h/mL
same,"AUCinf, Median",Moderate hepatic impairment,1534.85 ng·h/mL
same,"AUClast, GM",Moderate hepatic impairment,1375.56 ng·h/mL
same,"AUClast, Mean",Moderate hepatic impairment,1435.97 ng·h/mL
same,"AUClast, Median",Moderate hepatic impairment,1459.15 ng·h/mL
same,"Cmax, GM",Moderate hepatic impairment,734.210 ng/mL
same,"Cmax, Mean",Moderate hepatic impairment,785.625 ng/mL
same,"Cmax, Median",Moderate hepatic impairment,759.500 ng/mL
same,"T1/2, GM",Moderate hepatic impairment,13.050 h
same,"T1/2, Mean",Moderate hepatic impairment,14.217 h
same,"T1/2, Median",Moderate hepatic impairment,12.381 h
same,"Tmax, Median",Moderate hepatic impairment,0.985 h
same,"λz, GM",Moderate hepatic impairment,0.0500 h⁻¹
same,"λz, Mean",Moderate hepatic impairment,0.0580 h⁻¹
same,"λz, Median",Moderate hepatic impairment,0.0560 h⁻¹
same,"AUC0-24 h, GM",Normal hepatic function,643.44 ng·h/mL
same,"AUC0-24 h, Mean",Normal hepatic function,676.36 ng·h/mL
same,"AUC0-24 h, Median",Normal hepatic function,613.15 ng·h/mL
same,"AUCinf, GM",Normal hepatic function,896.29 ng·h/mL
same,"AUCinf, Mean",Normal hepatic function,946.46 ng·h/mL
same,"AUCinf, Median",Normal hepatic function,932.27 ng·h/mL
same,"AUClast, GM",Normal hepatic function,867.85 ng·h/mL
same,"AUClast, Mean",Normal hepatic function,919.86 ng·h/mL
same,"AUClast, Median",Normal hepatic function,894.59 ng·h/mL
same,"Cmax, GM",Normal hepatic function,353.110 ng/mL
same,"Cmax, Mean",Normal hepatic function,419.750 ng/mL
same,"Cmax, Median",Normal hepatic function,513.000 ng/mL
same,"T1/2, GM",Normal hepatic function,18.220 h
same,"T1/2, Mean",Normal hepatic function,19.245 h
same,"T1/2, Median",Normal hepatic function,17.755 h
same,"Tmax, Median",Normal hepatic function,0.500 h
same,"λz, GM",Normal hepatic function,0.0400 h⁻¹
same,"λz, Mean",Normal hepatic function,0.0402 h⁻¹
same,"λz, Median",Normal hepatic function,0.0391 h⁻¹
same,"AUC0-24 h, GM",Severe hepatic impairment,1977.74 ng·h/mL
same,"AUC0-24 h, Mean",Severe hepatic impairment,2295.22 ng·h/mL
same,"AUC0-24 h, Median",Severe hepatic impairment,1922.86 ng·h/mL
same,"AUCinf, GM",Severe hepatic impairment,2081.97 ng·h/mL
same,"AUCinf, Mean",Severe hepatic impairment,2467.86 ng·h/mL
same,"AUCinf, Median",Severe hepatic impairment,1959.93 ng·h/mL
same,"AUClast, GM",Severe hepatic impairment,2057.13 ng·h/mL
same,"AUClast, Mean",Severe hepatic impairment,2443.30 ng·h/mL
same,"AUClast, Median",Severe hepatic impairment,1951.71 ng·h/mL
same,"Cmax, GM",Severe hepatic impairment,901.010 ng/mL
same,"Cmax, Mean",Severe hepatic impairment,952.625 ng/mL
same,"Cmax, Median",Severe hepatic impairment,894.000 ng/mL
same,"T1/2, GM",Severe hepatic impairment,8.450 h
same,"T1/2, Mean",Severe hepatic impairment,10.103 h
same,"T1/2, Median",Severe hepatic impairment,8.542 h
same,"Tmax, Median",Severe hepatic impairment,0.500 h
same,"λz, GM",Severe hepatic impairment,0.0800 h⁻¹
same,"λz, Mean",Severe hepatic impairment,0.0995 h⁻¹
same,"λz, Median",Severe hepatic impairment,0.0882 h⁻¹
same,time to primary peak of GM plasma concentrations,all groups,≤ 1 h
same,time post dose until which concentrations remained above LLOQ in at least half of the subjects,mild hepatic impairment,96 h
same,time post dose until which concentrations remained above LLOQ in at least half of the subjects,moderate hepatic impairment,72 h
same,time post dose until which concentrations remained above LLOQ in at least half of the subjects,normal hepatic function,96 h
same,time post dose until which concentrations remained above LLOQ in at least half of the subjects,severe hepatic impairment,48 h
same,"Maximum value of AUC0-24 h, severe hepatic impairment compared with control group",severe vs control group,~ 5 fold
same,"Maximum value of AUCinf, severe hepatic impairment compared with control group",severe vs control group,~ 4 fold
same,"Maximum value of AUClast, severe hepatic impairment compared with control group",severe vs control group,~ 4 fold
same,"Maximum value of Cmax, severe hepatic impairment compared with control group",severe vs control group,~ 2 fold
